Data reported in patent publication US11168095B2, “ASK1 inhibiting agents” (BIOGEN MA INC., priority 2017, dated 2021).
Where two headings read alike, the source gives them in different places.

Legend:
ASK1/MAP3K5 = ASK1/MAP3K5 (Homo sapiens (Human), UniProt Q99683); test: ASK1/MAP3K5 assay by Reaction Biology Corp.; assay type: biochemical
Experimental: ASK1/MAP3K5 was used as the protein kinase and 20 μM of myelin basic protein (MBP) and 10 μM ATP were used as the substrate.

[1] = molecular target: ASK1 T838 auto phosphorylation in HEK-293T cells (Homo sapiens (Human), UniProt Q99683); test: ASK1 (AUTO PHOS T838) assay, MSD format; assay type: cell-based; details: HEK 293T cells transfected with ASK1-V5 full length plasmid, compounds 1 hr at 37° C.; read-out: IC50
Chain of ASK1 T838 auto phosphorylation in HEK-293T cells (Q99683 whole entry): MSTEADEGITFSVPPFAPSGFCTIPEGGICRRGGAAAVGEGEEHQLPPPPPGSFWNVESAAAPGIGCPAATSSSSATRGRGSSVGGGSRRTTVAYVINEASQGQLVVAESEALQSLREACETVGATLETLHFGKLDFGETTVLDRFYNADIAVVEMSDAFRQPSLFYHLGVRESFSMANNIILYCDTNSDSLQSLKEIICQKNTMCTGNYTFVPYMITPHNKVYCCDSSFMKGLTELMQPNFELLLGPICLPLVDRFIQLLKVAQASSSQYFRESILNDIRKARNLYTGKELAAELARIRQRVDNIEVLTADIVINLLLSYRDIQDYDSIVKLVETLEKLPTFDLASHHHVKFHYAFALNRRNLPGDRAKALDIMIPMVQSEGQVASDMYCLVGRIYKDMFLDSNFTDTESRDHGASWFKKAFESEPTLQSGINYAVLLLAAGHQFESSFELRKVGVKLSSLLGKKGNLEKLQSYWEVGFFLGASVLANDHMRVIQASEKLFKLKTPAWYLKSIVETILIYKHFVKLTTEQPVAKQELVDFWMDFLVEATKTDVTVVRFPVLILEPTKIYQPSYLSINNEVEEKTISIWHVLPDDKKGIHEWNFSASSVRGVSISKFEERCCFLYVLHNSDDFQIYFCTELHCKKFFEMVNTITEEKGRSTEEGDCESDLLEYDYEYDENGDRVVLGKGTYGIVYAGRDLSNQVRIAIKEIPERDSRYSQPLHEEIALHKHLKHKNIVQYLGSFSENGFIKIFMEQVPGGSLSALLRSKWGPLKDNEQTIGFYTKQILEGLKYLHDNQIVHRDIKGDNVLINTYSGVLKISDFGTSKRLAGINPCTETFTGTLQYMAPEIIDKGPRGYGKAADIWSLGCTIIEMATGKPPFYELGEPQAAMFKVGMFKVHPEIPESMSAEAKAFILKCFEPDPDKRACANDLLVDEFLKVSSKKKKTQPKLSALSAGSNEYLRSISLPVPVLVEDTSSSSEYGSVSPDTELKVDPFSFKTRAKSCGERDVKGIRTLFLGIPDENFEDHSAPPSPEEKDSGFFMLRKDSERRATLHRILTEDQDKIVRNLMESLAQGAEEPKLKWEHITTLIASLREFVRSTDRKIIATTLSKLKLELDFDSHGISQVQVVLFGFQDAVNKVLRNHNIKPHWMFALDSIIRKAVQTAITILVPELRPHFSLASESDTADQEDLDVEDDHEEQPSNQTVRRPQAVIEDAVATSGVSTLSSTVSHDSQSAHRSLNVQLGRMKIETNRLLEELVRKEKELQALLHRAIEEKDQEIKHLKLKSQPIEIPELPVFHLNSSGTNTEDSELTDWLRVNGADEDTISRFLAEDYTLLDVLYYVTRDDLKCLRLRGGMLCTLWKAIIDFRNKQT
Experimental: The plates were incubated at 37° C. overnight. Media on plates was changed to OPTI-MEM, serum free media and cells were transfected with 9 μg of ASK1-V5 tagged full length plasmid using Lipofectamine 2000 (Invitrogen) and the plates were incubated at 37° C. overnight. Cells were trypsinized, counted on Nexcellometer and plated into 96 well tissue culture plates with 100,000 cells/well and 200 μL media. Cells were incubated for 4 hr at 37° C. then ASK1 compounds were added using a HP 300e. Compounds were tested at 20 μM with 3 fold, 10 point dilution points then incubated for 1 hr at 37° C. A lysis buffer (Cell Signaling) was prepared with protease and phosphatase inhibitor and maintained at 4° C. until use. Media from cells was discarded and 120 μL of cold lysis buffer was added to the cells, the plate was shaken 4° C. for 1 hr. Lysate was mixed using Apricot liquid handler; aspirating up and down 16 times at high speed using 50 μL volume. […] Plates were then incubated on a plate shaker overnight at 4° C. Plates were washed 3× with MSD wash buffer and 50 μL of rabbit anti-pASK1 T838 antibody was added to the wells and incubated for 2 hr at room temperature on a plate shaker. Plates were then washed and 50 μL of goat anti-rabbit sulfa-tag (1:500 dilution) was added to wells, and incubated for 1 hr at room temperature on a plate shaker. […] Plates were immediately read on a MSD Instrument Reader where chemoluminecense signal was measured. Data was analyzed using Graph Pad or Genedata, the data was normalized and plotted, % activity versus log of compound concentration. The IC50 values were obtained from a 4 parameter fit.

[2] = 20 μM myelin basic protein (MBP), 10 μM ATP

Chain of ASK1/MAP3K5 (Q99683 whole entry): as above

IC50 (ASK1/MAP3K5; [2])	IC50 [1]	Compound	IC50 (ASK1/MAP3K5)
< 100 nM	< 1000 nM	O=C1Nc2cccc(n2)-c2nncn2CCCCOc2cc(F)c(-c3ccnc(C4CC4)c3)cc21 [Example 56, 5^5-(2-Cyclopropylpyridin-4-yl)-5^4-fluoro-1^4H-6-oxa-3-aza-2(2,6)-pyridina-1(3,4)-triazola-5(1,2)-benzenacyclodecaphan-4-one]	–
< 100 nM	< 1000 nM	Cc1ccn(-c2ccc3c(c2)C(=O)Nc2cccc(n2)-c2nncn2CCCCO3)n1 [Example 45, 5^5-(3-Methyl-1H-pyrazol-1-yl)-1^4H-6-oxa-3-aza-2(2,6)-pyridina-1(3,4)-triazola-5(1,2)-benzenacyclodecaphan-4-one]	–
< 100 nM	< 1000 nM	O=C1Nc2cccc(n2)-c2nncn2CCCCOc2ccc(-c3cnn(C4CCC4)c3)cc21 [Example 35, 5^5-(1-Cyclobutyl-1H-pyrazol-4-yl)-1^4H-6-oxa-3-aza-2(2,6)-pyridina-1(3,4)-triazola-5(1,2)-benzenacyclodecaphan-4-one]	–
< 100 nM	< 1000 nM	O=C1Nc2cccc(n2)-c2nncn2CCCCOc2cc(F)c(C3CCOCC3)cc21 [Example 68, 5^4-Fluoro-5^5-(tetrahydro-2H-pyran-4-yl)-1^4H-6-oxa-3-aza-2(2,6)-pyridina-1(3,4)-triazola-5(1,2)-benzenacyclodecaphan-4-one]	–
< 100 nM	< 1000 nM	Cc1ccc(-c2cc3c(cc2F)OCCCCn2cnnc2-c2cccc(n2)NC3=O)cn1 [Example 57, 5^4-Fluoro-5^5-(6-methylpyridin-3-yl)-1^4H-6-oxa-3-aza-2(2,6)-pyridina-1(3,4)-triazola-5(1,2)-benzenacyclodecaphan-4-one]	–
< 100 nM	< 1000 nM	O=C1Nc2cccc(n2)-c2nncn2CCCCOc2cc(F)c(-c3ccncc3)cc21 [Example 52, 5^4-Fluoro-5^5-(pyridin-4-yl)-1^4H-6-oxa-3-aza-2(2,6)-pyridina-1(3,4)-triazola-5(1,2)-benzenacyclodecaphan-4-one]	–
< 100 nM	< 1000 nM	CN(C)CCn1cc(-c2cc3c(cc2F)OCC/C=C/Cn2cnnc2-c2cccc(n2)NC3=O)cn1 [Example 178, (E)-5^5-(1-(2-(Dimethylamino)ethyl)-1H-pyrazol-4-yl)-5^4-fluoro-1^4H-6-oxa-3-aza-2(2,6)-pyridina-1(3,4)-triazola-5(1,2)-benzenacycloundecaphan-9-en-4-one]	–
< 100 nM	1000 to 10000 nM	C[C@@H]1CCCn2cnnc2-c2cccc(n2)NC(=O)c2cc(Br)ccc2O1 [Example 137, (R)-5^5-Bromo-7-methyl-1^4H-6-oxa-3-aza-2(2,6)-pyridina-1(3,4)-triazola-5(1,2)-benzenacyclodecaphan-4-one]	–
100 to 1000 nM	< 1000 nM	C[C@H]1CCCn2cnnc2-c2cccc(n2)NC(=O)c2cc(C#N)ccc2O1 [Example 150, (S)-7-Methyl-4-oxo-1^4H-6-oxa-3-aza-2(2,6)-pyridina-1(3,4)-triazola-5(1,2)-benzenacyclodecaphane-5^5-carbonitrile]	–
< 100 nM	< 1000 nM	Cc1cc(-c2cc3c(cc2F)OCCCCn2cnnc2-c2cccc(n2)NC3=O)ccn1 [Example 54, 5^4-Fluoro-5^5-(2-methylpyridin-4-yl)-1^4H-6-oxa-3-aza-2(2,6)-pyridina-1(3,4)-triazola-5(1,2)-benzenacyclodecaphan-4-one]	–
100 to 1000 nM	1000 to 10000 nM	C[C@@H]1CCCOc2ccc(F)cc2C(=O)Nc2cccc(n2)-c2nncn21 [Example 100, (R)-5^5-Fluoro-10-methyl-1^4H-6-oxa-3-aza-2(2,6)-pyridina-1(3,4)-triazola-5(1,2)-benzenacyclodecaphan-4-one]	–
< 100 nM	< 1000 nM	C[C@H]1CCCn2cnnc2-c2cccc(n2)NC(=O)c2cc(Br)ccc2O1 [Example 136, (S)-5^5-Bromo-7-methyl-1^4H-6-oxa-3-aza-2(2,6)-pyridina-1(3,4)-triazola-5(1,2)-benzenacyclodecaphan-4-one]	–
< 100 nM	< 1000 nM	C[C@H]1CCCOc2cc(F)c(-c3ccncc3)cc2C(=O)Nc2cccc(n2)-c2nncn21 [Example 112, (S)-5^4-Fluoro-10-methyl-5^5-(pyridin-4-yl)-1^4H-6-oxa-3-aza-2(2,6)-pyridina-1(3,4)-triazola-5(1,2)-benzenacyclodecaphan-4-one]	–
< 100 nM	< 1000 nM	C[C@H]1CN(C)CCN1c1ccc2c(c1)OCCCCn1cnnc1-c1cccc(n1)NC2=O [Example 82, (S)-5^4-(2,4-Dimethylpiperazin-1-yl)-1^4H-6-oxa-3-aza-2(2,6)-pyridina-1(3,4)-triazola-5(1,2)-benzenacyclodecaphan-4-one]	–
< 100 nM	< 1000 nM	O=C1Nc2cccc(n2)-c2nncn2CCCCOc2cc(F)c(-c3cncnc3)cc21 [Example 60, 5^4-Fluoro-5^5-(pyrimidin-5-yl)-1^4H-6-oxa-3-aza-2(2,6)-pyridina-1(3,4)-triazola-5(1,2)-benzenacyclodecaphan-4-one]	–
< 100 nM	< 1000 nM	Cn1cc(-c2ccc3c(c2)OCCCCn2cnnc2-c2cccc(n2)NC3=O)cn1 [Example 84, 5^4-(1-Methyl-1H-pyrazol-4-yl)-1^4H-6-oxa-3-aza-2(2,6)-pyridina-1(3,4)-triazola-5(1,2)-benzenacyclodecaphan-4-one]	–
< 100 nM	< 1000 nM	C[C@H]1CCCOc2cc(F)c(-c3cncc(C(F)(F)F)c3)cc2C(=O)Nc2cccc(n2)-c2nncn21 [Example 111, (S)-5^4-Fluoro-10-methyl-5^5-(5-(trifluoromethyl)pyridin-3-yl)-1^4H-6-oxa-3-aza-2(2,6)-pyridina-1(3,4)-triazola-5(1,2)-benzenacyclodecaphan-4-one]	–
< 100 nM	< 1000 nM	CN1CCC(c2cc3c(cc2F)OCCCCn2cnnc2-c2cccc(n2)NC3=O)CC1 [Example 70, 5^4-Fluoro-5^5-(1-methylpiperidin-4-yl)-1^4H-6-oxa-3-aza-2(2,6)-pyridina-1(3,4)-triazola-5(1,2)-benzenacyclodecaphan-4-one]	–
< 100 nM	< 1000 nM	C[C@@H]1CCCn2cnnc2-c2cccc(n2)NC(=O)c2cc(C#N)ccc2O1 [Example 151, (R)-7-Methyl-4-oxo-1^4H-6-oxa-3-aza-2(2,6)-pyridina-1(3,4)-triazola-5(1,2)-benzenacyclodecaphane-5^5-carbonitrile]	–
< 100 nM	< 1000 nM	CN1CCC(c2ccc3c(c2)OCCCCn2cnnc2-c2cccc(n2)NC3=O)CC1 [Example 79, 5^4-(1-Methylpiperidin-4-yl)-1^4H-6-oxa-3-aza-2(2,6)-pyridina-1(3,4)-triazola-5(1,2)-benzenacyclodecaphan-4-one]	–
1000 to 10000 nM	1000 to 10000 nM	C[C@@H]1CCCOc2cc(N3CCN(C)CC3)ccc2C(=O)Nc2cccc(n2)-c2nncn21 [Example 123, (R)-10-Methyl-5^4-(4-methylpiperazin-1-yl)-1^4H-6-oxa-3-aza-2(2,6)-pyridina-1(3,4)-triazola-5(1,2)-benzenacyclodecaphan-4-one]	–

Compound	IC50 (ASK1/MAP3K5; [2])	IC50 [1]	IC50 (ASK1/MAP3K5)
CN(C)CCOc1cc2c(cc1F)OCCCCn1cnnc1-c1cccc(n1)NC2=O [Example 76, 5^5-(2-(Dimethylamino)ethoxy)-5^4-fluoro-1^4H-6-oxa-3-aza-2(2,6)-pyridina-1(3,4)-triazola-5(1,2)-benzenacyclodecaphan-4-one]	–	< 1000 nM	< 100 nM
CN1CC=C(c2ccc3c(c2)OCCCCn2cnnc2-c2cccc(n2)NC3=O)CC1 [Example 78, 5^4-(1-Methyl-1,2,3,6-tetrahydropyridin-4-yl)-1^4H-6-oxa-3-aza-2(2,6)-pyridina-1(3,4)-triazola-5(1,2)-benzenacyclodecaphan-4-one]	–	< 1000 nM	< 100 nM
CN1CC=C(c2cc3c(cc2F)OCCCCn2cnnc2-c2cccc(n2)NC3=O)CC1 [Example 69, 5^4-Fluoro-5^5-(1-methyl-1,2,3,6-tetrahydropyridin-4-yl)-1^4H-6-oxa-3-aza-2(2,6)-pyridina-1(3,4)-triazola-5(1,2)-benzenacyclodecaphan-4-one]	< 100 nM	< 1000 nM	–
C[C@H]1CCCOc2cc(F)c(C3=CCN(C)CC3)cc2C(=O)Nc2cccc(n2)-c2nncn21 [Example 106, (S)-5^4-Fluoro-10-methyl-5^5-(1-methyl-1,2,3,6-tetrahydropyridin-4-yl)-1^4H-6-oxa-3-aza-2(2,6)-pyridina-1(3,4)-triazola-5(1,2)-benzenacyclodecaphan-4-one]	< 100 nM	< 1000 nM	–
Cc1cn(-c2ccc3c(c2)C(=O)Nc2cccc(n2)-c2nncn2CCC[C@H](C)O3)cn1 [Example 148, (S)-7-Methyl-5^5-(4-methyl-1H-imidazol-1-yl)-1^4H-6-oxa-3-aza-2(2,6)-pyridina-1(3,4)-triazola-5(1,2)-benzenacyclodecaphan-4-one]	–	< 1000 nM	< 100 nM
